Measured values published in patent US20250230193A1, “CYCLIC COMPOUND HAVING SELECTIVE KRAS INHIBITORY EFFECT ON HRAS AND NRAS” (CHUGAI SEIYAKU KABUSHIKI KAISHA, priority 2022, published 2025).

How the values were obtained:
[1] = target: GDP-bound HRAS wild-type protein (Homo sapiens, UniProt P01112); assay: Binding to HRAS by surface plasmon resonance (SPR), Single Cycle Kinetics; conditions: KD ratio HRAS/KRAS, class symbols
[2] = target: GDP-bound NRAS wild-type protein (Homo sapiens, UniProt P01111); assay: Binding to NRAS by surface plasmon resonance (SPR), Single Cycle Kinetics; conditions: KD ratio NRAS/KRAS, class symbols
Sequence of GDP-bound NRAS wild-type protein (P01111 whole entry): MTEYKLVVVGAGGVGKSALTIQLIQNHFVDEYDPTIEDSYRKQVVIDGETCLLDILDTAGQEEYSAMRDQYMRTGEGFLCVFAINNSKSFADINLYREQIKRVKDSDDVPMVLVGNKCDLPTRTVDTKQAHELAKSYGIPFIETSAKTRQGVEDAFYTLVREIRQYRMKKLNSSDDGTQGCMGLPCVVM

Sequence of GDP-bound HRAS wild-type protein (P01112 whole entry): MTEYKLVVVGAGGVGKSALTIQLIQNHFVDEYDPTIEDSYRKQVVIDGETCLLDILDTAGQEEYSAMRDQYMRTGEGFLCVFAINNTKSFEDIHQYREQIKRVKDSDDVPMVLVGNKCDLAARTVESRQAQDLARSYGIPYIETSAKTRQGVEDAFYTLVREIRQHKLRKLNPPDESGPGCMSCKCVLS

SMILES | HRAS/KRAS (ratio of KD value with respect to GDP-bound HRAS wild-type protein to KD value with respect to KRAS) [1] | NRAS/KRAS (ratio of KD value with respect to GDP-bound NRAS wild-type protein to KD value with respect to KRAS) [2]
CCC(CC)[C@H]1C(=O)N(C)[C@H](C(=O)N(C)C)CC(=O)N(C)[C@@H](COC)C(=O)N[C@@H]([C@@H](C)CC)C(=O)N(C2CC2)CC(=O)N(C)[C@H]2C/C=C\CCN(C2=O)[C@@H](Cc2ccc(C)cc2)C(=O)N(C)CC(=O)N[C@@H](CCc2cc(F)c(C(F)(F)F)c(F)c2)C(=O)N2C[C@H](OC3CCCC3)C[C@H]2C(=O)NC2(CC(C)(C)C2)C(=O)N1C [PP2619] | A (a compound having 10 or more and less than 20 is denoted as A) | AA (a compound having 20 or more is denoted as AA)
CC[C@H](C)[C@@H]1NC(=O)[C@H](COC)N(C)C(=O)C[C@@H](C(=O)N(C)C)N(C)C(=O)[C@H](C2CCCC2)N(C)C(=O)C2(CC(C)(C)C2)NC(=O)[C@@H]2C[C@@H](OC3CCC3)CN2C(=O)[C@H](CCc2cc(F)c(C(F)(F)F)c(F)c2)NC(=O)CN(C)C(=O)[C@H](CC2CCC(F)(F)CC2)N2CC/C=C\C[C@@H](C2=O)N(C)C(=O)CN(C2CC2)C1=O [PP2622] | B (a compound having 3 or more and less than 10 is denoted as B) | A (a compound having 10 or more and less than 20 is denoted as A)
CC[C@H](C)[C@@H]1NC(=O)[C@H](COC)N(C)C(=O)C[C@@H](C(=O)N(C)C)N(C)C(=O)[C@H](C2CCCC2)N(C)C(=O)C2(CC(C)(C)C2)NC(=O)[C@@H]2C[C@@H](OC3CCC3)CN2C(=O)[C@H](CCc2ccc(Cl)c(Cl)c2)NC(=O)CN(C)C(=O)[C@H](CC2CCC(F)(F)CC2)N2CC/C=C\C[C@@H](C2=O)N(C)C(=O)CN(C2CC2)C1=O [PP2624] | A (a compound having 10 or more and less than 20 is denoted as A) | A (a compound having 10 or more and less than 20 is denoted as A)
CC[C@H](C)[C@@H]1NC(=O)[C@H](COC)N(C)C(=O)C[C@@H](C(=O)N(C)C)N(C)C(=O)[C@H](C2CCCC2)N(C)C(=O)C2(CC(C)(C)C2)NC(=O)[C@@H]2C[C@@H](OC3CCCC3)CN2C(=O)[C@H](CCc2cc(F)c(C(F)(F)F)c(F)c2)NC(=O)CN(C)C(=O)[C@H](Cc2ccc(C)cc2)N2CC/C=C\C[C@@H](C2=O)N(C)C(=O)CN(C2CC2)C1=O [PP2626] | A (a compound having 10 or more and less than 20 is denoted as A) | A (a compound having 10 or more and less than 20 is denoted as A)
CCC(CC)[C@H]1C(=O)N(C)[C@H](C(=O)N(C)C)CC(=O)N(C)[C@@H](COC)C(=O)N[C@@H]([C@@H](C)CC)C(=O)N(C2CC2)CC(=O)N(C)[C@H]2C/C=C\CCN(C2=O)[C@@H](CC2CCC(F)(F)CC2)C(=O)N(C)CC(=O)N[C@@H](CCc2cc(F)c(C(F)(F)F)c(F)c2)C(=O)N2C[C@H](OC3CCCC3)C[C@H]2C(=O)NC2(CC(C)(C)C2)C(=O)N1C [PP2627] | A (a compound having 10 or more and less than 20 is denoted as A) | A (a compound having 10 or more and less than 20 is denoted as A)
CC[C@H](C)[C@@H]1NC(=O)[C@H](COC)N(C)C(=O)C[C@@H](C(=O)N(C)C)N(C)C(=O)[C@H](C2CCCC2)N(C)C(=O)C2(CC(C)(C)C2)NC(=O)[C@@H]2C[C@@H](OC3CCCC3)CN2C(=O)[C@H](CCc2ccc(Cl)c(Cl)c2)NC(=O)CN(C)C(=O)[C@H](Cc2ccc(C)cc2)N2CC/C=C\C[C@@H](C2=O)N(C)C(=O)CN(C2CC2)C1=O [PP2628] | A (a compound having 10 or more and less than 20 is denoted as A) | A (a compound having 10 or more and less than 20 is denoted as A)
CC[C@H](C)[C@@H]1NC(=O)[C@H](COC)N(C)C(=O)C[C@@H](C(=O)N(C)C)N(C)C(=O)[C@H](C2CCCC2)N(C)C(=O)C2(CC(C)(C)C2)NC(=O)[C@@H]2C[C@@H](OC3CCCC3)CN2C(=O)[C@H](CCc2cc(F)c(C(F)(F)F)c(F)c2)NC(=O)CN(C)C(=O)[C@H](CC2CCCCC2)N2CC/C=C\C[C@@H](C2=O)N(C)C(=O)CN(C2CC2)C1=O [PP2630] | B (a compound having 3 or more and less than 10 is denoted as B) | A (a compound having 10 or more and less than 20 is denoted as A)
CCC(CC)[C@H]1C(=O)N(C)[C@H](C(=O)N(C)C)CC(=O)N(C)[C@@H](COC)C(=O)N[C@@H]([C@@H](C)CC)C(=O)N(C2CC2)CC(=O)N(C)[C@H]2C/C=C\CCN(C2=O)[C@@H](Cc2ccc(C(F)F)cc2)C(=O)N(C)CC(=O)N[C@@H](CCc2cc(F)c(C(F)(F)F)c(F)c2)C(=O)N2C[C@H](OC3CCC3)C[C@H]2C(=O)NC2(CC(C)(C)C2)C(=O)N1C [PP2631] | A (a compound having 10 or more and less than 20 is denoted as A) | AA (a compound having 20 or more is denoted as AA)
CCC(CC)[C@H]1C(=O)N(C)[C@H](C(=O)N(C)C)CC(=O)N(C)[C@@H](COC)C(=O)N[C@@H]([C@@H](C)CC)C(=O)N(C2CC2)CC(=O)N(C)[C@H]2C/C=C\CCN(C2=O)[C@@H](Cc2ccc(C(F)F)cc2)C(=O)N(C)CC(=O)N[C@@H](CCc2cc(F)c(C(F)(F)F)c(F)c2)C(=O)N2C[C@H](OC3CCCC3)C[C@H]2C(=O)NC2(CC(C)(C)C2)C(=O)N1C [PP2633] | A (a compound having 10 or more and less than 20 is denoted as A) | AA (a compound having 20 or more is denoted as AA)
CC[C@H](C)[C@@H]1NC(=O)[C@H](COC)N(C)C(=O)C[C@@H](C(=O)N(C)C)N(C)C(=O)[C@H](C2CCCC2)N(C)C(=O)C2(CC(C)(C)C2)NC(=O)[C@@H]2C[C@@H](OC3CCCC3)CN2C(=O)[C@H](CCc2cc(F)c(C(F)(F)F)c(F)c2)NC(=O)CN(C)C(=O)[C@H](CC2CCC(F)(F)CC2)N2CC/C=C\C[C@@H](C2=O)N(C)C(=O)CN(C2CC2)C1=O [PP2634] | A (a compound having 10 or more and less than 20 is denoted as A) | A (a compound having 10 or more and less than 20 is denoted as A)
CCO[C@@H]1C[C@H]2C(=O)NC3(CC(C)(C)C3)C(=O)N(C)[C@@H](C(CC)CC)C(=O)N(C)[C@H](C(=O)N(C)C)CC(=O)N(C)[C@@H](COC)C(=O)N[C@@H]([C@@H](C)CC)C(=O)N3CCC[C@H]3C(=O)N(C)[C@H]3C/C=C\CCN(C3=O)[C@@H](Cc3ccc(C(F)(F)F)cc3)C(=O)N(C)CC(=O)N[C@@H](CCc3ccc(Cl)c(Cl)c3)C(=O)N2C1 [PP2635] | A (a compound having 10 or more and less than 20 is denoted as A) | AA (a compound having 20 or more is denoted as AA)
CCC[C@H]1C(=O)N[C@@H]([C@@H](C)CC)C(=O)N2CCC[C@H]2C(=O)N(C)[C@H]2C/C=C\CCN(C2=O)[C@@H](Cc2ccc(C(F)F)cc2)C(=O)N(C)CC(=O)N[C@@H](CCc2ccc(Cl)c(Cl)c2)C(=O)N2C[C@H](OCC)C[C@H]2C(=O)NC2(CC(C)(C)C2)C(=O)N(C)[C@@H](C(CC)CC)C(=O)N(C)[C@H](C(=O)N(C)C)CC(=O)N1C [PP2637] | A (a compound having 10 or more and less than 20 is denoted as A) | AA (a compound having 20 or more is denoted as AA)
CCC[C@H]1C(=O)N[C@@H]([C@@H](C)CC)C(=O)N2CCC[C@H]2C(=O)N(C)[C@H]2C/C=C\CCN(C2=O)[C@@H](Cc2ccc(C)cc2)C(=O)N(C)CC(=O)N[C@@H](CCc2ccc(Cl)c(Cl)c2)C(=O)N2C[C@H](OCC)C[C@H]2C(=O)NC2(CC(C)(C)C2)C(=O)N(C)[C@@H](C(CC)CC)C(=O)N(C)[C@H](C(=O)N(C)C)CC(=O)N1C [PP2638] | A (a compound having 10 or more and less than 20 is denoted as A) | AA (a compound having 20 or more is denoted as AA)
CCC(CC)[C@H]1C(=O)N(C)[C@H](C(=O)N(C)C)CC(=O)N(C)[C@@H](COC)C(=O)N[C@@H]([C@@H](C)CC)C(=O)N2CCC[C@H]2C(=O)N(C)[C@H]2C/C=C\CCN(C2=O)[C@@H](Cc2ccc(C(F)(F)F)cc2)C(=O)N(C)CC(=O)N[C@@H](CCc2ccc(Cl)c(Cl)c2)C(=O)N2C[C@H](OC(C)C)C[C@H]2C(=O)NC2(CC(C)(C)C2)C(=O)N1C [PP2639] | A (a compound having 10 or more and less than 20 is denoted as A) | AA (a compound having 20 or more is denoted as AA)
CCC[C@H]1C(=O)N[C@@H]([C@@H](C)CC)C(=O)N2CCC[C@H]2C(=O)N(C)[C@H]2C/C=C\CCN(C2=O)[C@@H](Cc2ccc(C(F)F)cc2)C(=O)N(C)CC(=O)N[C@@H](CCc2ccc(Cl)c(Cl)c2)C(=O)N2C[C@H](OC(C)C)C[C@H]2C(=O)NC2(CC(C)(C)C2)C(=O)N(C)[C@@H](C(CC)CC)C(=O)N(C)[C@H](C(=O)N(C)C)CC(=O)N1C [PP2640] | A (a compound having 10 or more and less than 20 is denoted as A) | AA (a compound having 20 or more is denoted as AA)
